Molecules are shown by their SMILES. Where “and” joins values, the source holds several entries; their conditions need not be identical. Equal entries are not always repeated.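 Growth conditions: 96-well plates. Treatment: test compound, 48 hours, 5 concentrations. Analysis: linear interpolation between bracketing concentrations; unreached endpoints set to highest concentration. Here, GI50 denotes the concentration required for 50% inhibition of growth. At the TGI there is no net growth.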

Among the test systems are COLO 205 colon; HCC-2998 colon; IGROV1 ovarian; MDA-MB-231 breast; MDA-MB-435; NCI-H522 lung; SF-295 CNS; SK-OV-3 ovarian; U251 CNS; TK-10 renal.
Test in all cases: growth of human tumour cells (NCI), 48 h

As for `CN1CCN(c2ccc(Nc3ncc4cc5n(c4n3)C3(CCCCC3)CNC5=O)nc2)CC1`, the GI50 in the experiment with COLO 205 colon was 0.0632 µM; in the experiment with HCC-2998 colon, 6.14 µM; with IGROV1 ovarian it was 2.42 µM; in the experiment on MDA-MB-231 breast it was 1.34 µM; in the experiment on MDA-MB-435, 2.02 µM; with NCI-H522 lung, 9.01 µM. Moreover, the GI50 was 3.09 µM in the experiment with SF-295 CNS, 11.4 µM in the experiment on SK-OV-3 ovarian and 1.32 µM in the experiment with U251 CNS. For the same compound, the TGI was 11.3 µM in the experiment with COLO 205 colon; 30.4 µM in the experiment with HCC-2998 colon; 16.4 µM in the experiment on IGROV1 ovarian; 10.5 µM with MDA-MB-231 breast; 24 µM in the experiment on MDA-MB-435; 31.5 µM in the experiment with NCI-H522 lung. For the same compound, the TGI is 18.4 µM in the experiment on SF-295 CNS, 68.2 µM in the experiment with SK-OV-3 ovarian and 28.2 µM in the experiment on U251 CNS.

Regarding `COc1cc(/C=C/c2cc(O)c(C/C=C(\C)CC/C=C(\C)CO)c(O)c2)cc2c1O[C@]1(C)CC[C@@H](O)C(C)(C)[C@H]1C2`, the GI50 is 3.21 µM and 15.6 µM in the experiment on COLO 205 colon; 12 µM with HCC-2998 colon; > 100 µM in the experiment with IGROV1 ovarian; 31 µM with MDA-MB-231 breast; 38.4 µM in the experiment with MDA-MB-435; 1.1 µM in the experiment with SF-295 CNS. In addition, the GI50 in the experiment on SK-OV-3 ovarian was > 100 µM. For the same compound, the TGI with COLO 205 colon was > 100 µM; in the experiment with HCC-2998 colon it was 39.6 µM; with IGROV1 ovarian, > 100 µM; in the experiment on MDA-MB-231 breast, > 100 µM; with MDA-MB-435 it was > 79.6 µM; in the experiment on SK-OV-3 ovarian it was > 100 µM. In addition, the TGI with TK-10 renal was > 93.8 µM; with U251 CNS, 8.3 µM and > 72.6 µM.

In the case of `O=C1N=C(Nc2nc(-c3csc(NC4=NC(=O)/C(=C\c5ccc(Cl)cc5)S4)n3)cs2)S/C1=C/c1ccc(Cl)cc1`, the GI50 with COLO 205 colon is 29.9 µM; in the experiment on HCC-2998 colon it was 13.3 µM; with IGROV1 ovarian, 19.8 µM; with MDA-MB-231 breast, 10.2 µM; in the experiment with MDA-MB-435 it was 12.8 µM; with NCI-H522 lung, 24.7 µM. The figures for the GI50 in the experiment with SF-295 CNS, with TK-10 renal and in the experiment with U251 CNS were 17.4 µM, 8.44 µM and 4.83 µM, respectively. Also, the TGI was > 50 µM in the experiment with COLO 205 colon; 45.2 µM in the experiment with HCC-2998 colon; > 50 µM in the experiment on IGROV1 ovarian; 35 µM in the experiment with MDA-MB-231 breast; > 50 µM with MDA-MB-435; > 50 µM in the experiment with NCI-H522 lung. For the same compound, the TGI in the experiment with SF-295 CNS was > 50 µM; in the experiment with TK-10 renal it was 25.6 µM; in the experiment with U251 CNS, > 50 µM.

`Fc1ccc(C2C3CCOc4c(ccc5ccccc45)C3=NN2c2ccccc2)cc1` (configuration not stated): the GI50 in the experiment on COLO 205 colon is > 100 µM; in the experiment with IGROV1 ovarian it was > 100 µM; with MDA-MB-231 breast, 43.8 µM; in the experiment with MDA-MB-435, > 100 µM; in the experiment with NCI-H522 lung it was > 100 µM; in the experiment on SF-295 CNS, 20.7 µM. Besides, the GI50 in the experiment on SK-OV-3 ovarian was > 100 µM; in the experiment on TK-10 renal, > 65 µM; in the experiment on U251 CNS it was 56.1 µM. Also, the TGI in the experiment on COLO 205 colon, in the experiment on IGROV1 ovarian, in the experiment on MDA-MB-231 breast, in the experiment with MDA-MB-435, in the experiment on NCI-H522 lung and in the experiment on SF-295 CNS was > 100 µM each time. Moreover, the TGI in the experiment with SK-OV-3 ovarian, in the experiment with TK-10 renal and in the experiment with U251 CNS was > 100 µM in each case.

Take `CC1(C)OC(=O)C(=Cc2ccc([N+](=O)[O-])s2)C(=O)O1`: the TGI with COLO 205 colon was 31 µM; in the experiment on HCC-2998 colon it was 24.7 µM; in the experiment on MDA-MB-231 breast it was 36.4 µM; in the experiment on MDA-MB-435, 30.4 µM; in the experiment with SF-295 CNS, 30.4 µM; with SK-OV-3 ovarian, 65.3 µM. Besides, the TGI in the experiment on TK-10 renal is 31.5 µM; in the experiment with U251 CNS it was 30.4 µM.

For the compound `CC12CC(=O)C3C(CCC4=CC(=O)CCC43C)C1CC=C2CC(=O)O` (configuration not stated), the TGI in the experiment with COLO 205 colon, with IGROV1 ovarian, with MDA-MB-231 breast, in the experiment with MDA-MB-435, in the experiment on NCI-H522 lung and in the experiment on SF-295 CNS was > 100 µM throughout. For the same compound, the TGI in the experiment on SK-OV-3 ovarian, in the experiment with TK-10 renal and in the experiment with U251 CNS was > 100 µM throughout.

Take `N=C1C(c2nc3ccccc3s2)=C(O)CN1c1cc(Cl)cc(Cl)c1`: the GI50 in the experiment with COLO 205 colon is > 100 µM; with HCC-2998 colon it was > 100 µM; with MDA-MB-231 breast it was 23.6 µM; with MDA-MB-435, > 100 µM; in the experiment on SF-295 CNS, 89.2 µM; with SK-OV-3 ovarian it was > 100 µM. Also, the GI50 was > 100 µM with TK-10 renal and 32.3 µM in the experiment with U251 CNS. The TGI in the experiment with COLO 205 colon, in the experiment with HCC-2998 colon, in the experiment on MDA-MB-231 breast, in the experiment with MDA-MB-435, in the experiment with SF-295 CNS and in the experiment on SK-OV-3 ovarian was > 100 µM throughout. Moreover, the TGI in the experiment with TK-10 renal and with U251 CNS was > 100 µM throughout.

(Values after PubChem BioAssay (NCI).)
